Test results reported in US7405303B2, “Substituted quinoline compounds for use as selective estrogen receptor modulator” (SmithKline Beecham Corporation, priority 2004, dated 2008).
Where two headings read alike, the source gives them in different places.

Tests used:
[1] = target: T1, GST-hERα (ligand binding domain) (Homo sapiens, UniProt P03372); test: SPA competition binding assay, ERα; settings: for Avg. ER α pKi: SPA competition binding vs 1 nM [3H]estradiol, apparent Ki, n = 2; for Ki: read-out: Avg. ER α pKi (converted)
T1 construct: made in house; host or cells: E. coli BL21 (DE3)pLYS S
T1 sequence (P03372 311-547 limits assumed): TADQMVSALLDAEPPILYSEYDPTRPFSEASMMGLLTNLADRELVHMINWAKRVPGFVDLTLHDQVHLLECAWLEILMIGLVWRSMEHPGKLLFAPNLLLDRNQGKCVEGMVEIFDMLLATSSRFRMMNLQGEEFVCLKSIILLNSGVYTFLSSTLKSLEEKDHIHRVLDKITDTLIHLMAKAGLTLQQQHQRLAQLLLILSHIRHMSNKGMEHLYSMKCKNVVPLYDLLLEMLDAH
Protocol: (§1) The ligand binding domain of both ERα and ERβ were sub-cloned into pGEX-2T vector which had been modified to contain KpnI and BamHI restriction sites in the multiple cloning region. GST-hERα and GST-hERβ proteins were made by transforming BL21 (DE3)pLYS S competent cells with the appropriate expression plasmid. […] The cells were collected by centrifugation and resuspended in lysis buffer (50 mM Tris pH 7.9; 250 mM KCl; 1% Triton X-100; 10 mM DTT; 1 mM PMSF). The lysate was then placed on dry ice until completely frozen The frozen lysate was thawed and centrifuged 20 min at 4° C. at 80K rpm in a TLA 100.2 rotor in a Beckman TL-100 ultracentrifuge. The supernatant was retained and glycerol was added to a final concentration of 10%. The protein content of the supernatant was quantitated using the BioRad Protein Assay Reagent. The protein was then stored at −80° C. until used in the binding assay.
(§2) Polylysine coated Yttrium Silicate SPA beads (Amersham #RPNQ 0010) are resuspended in assay buffer [10 mM potassium phosphate buffer pH 7.0 containing 2 mM EDTA, 50 mM NaCl, 1 mM DTT, 2 mM CHAPS, 10% glycerol] to a concentration of 1 g/60 ml. 30 ul (0.5 mg) of the SPA beads are then added to each well of a Packard OptiPlate (Packard 6005190, Packard Instruments, Meriden, Conn.). […] [2,4,6,7,16,17-3H(N)]-Estradiol is added as a 30 ul aliquot to give a final assay concentration of 1 nM. […] The plates are shaken vigorously for two hours then counted on a Packard TopCount using the protocol for counting tritium yttrium silicate SPA beads. Data analysis was done by standard methods. % Bound was calculated for each concentration of each test compound using the equation % Bound=100*((Test−NS)/(T−NS)). % Bound was plotted vs concentration and curve fitting was accomplished using non-linear regression.

[2] = target: T2, GST-hERβ (ligand binding domain) (Homo sapiens, UniProt Q92731); test: SPA competition binding assay, ERβ; settings: for Avg. ER β pKi: SPA competition binding vs 1 nM [3H]estradiol, apparent Ki, n = 2
T2 construct: made in house; host or cells: E. coli BL21 (DE3)pLYS S
T2 sequence (Q92731 264-498 limits assumed): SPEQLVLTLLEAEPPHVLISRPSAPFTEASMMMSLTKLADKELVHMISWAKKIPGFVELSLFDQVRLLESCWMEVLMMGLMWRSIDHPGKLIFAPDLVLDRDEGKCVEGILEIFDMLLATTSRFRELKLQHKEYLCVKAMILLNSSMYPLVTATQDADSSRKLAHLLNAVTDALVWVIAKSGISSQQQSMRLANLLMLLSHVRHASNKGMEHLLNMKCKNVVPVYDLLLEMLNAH
Protocol: as §1, with “The lysate was then placed on dry ice until completely frozen The frozen lysate was thawed and centrifuged 20 min at 4° C. at 80K rpm in a TLA 100.2 rotor in a Beckman TL-100 ultracentrifuge.” left out
as §2, with “ml.” for “ml. 30 ul (0.5 mg) of the SPA beads are then added to each well of a Packard OptiPlate (Packard 6005190, Packard Instruments, Meriden, Conn.).”

| Molecule | Avg. ER α pKi [1] | Avg. ER β pKi [2] | Ki [1] | Ki [2] | Ki ([2]; read-out: Avg. ER β pKi (converted)) |
| --- | --- | --- | --- | --- | --- |
| 4-[(7-Hydroxy-2-ethyl-3-(3-trifluoromethylphenyl)-4-quinolinyl)oxyphenyl]-2-propenoic acid [Example 8] | 7.05 | 6.57 | – | – | – |
| 4-[(7-Hydroxy-2-ethyl-3-(3-trifluoromethylphenyl]-4-quinolinyl)oxyphenyl]-2-propeno-N-isopropylamide [Example 7] | 7.51 | 7.26 | – | – | – |
| 4-[(7-Hydroxy-2-ethyl-3-phenyl-4-quinolinyl)oxyphenyl]-2-propeno-N,N-dimethylamide [Example 4] | 7.95 | 7.74 | – | – | – |
| 4-[(7-Hydroxy-2-ethyl-3-phenyl-4-quinolinyl)oxyphenyl]-2-propeno-N-isopropylamide [Example 3] | 8.01 | 7.76 | – | – | – |
| 4-[(7-Hydroxy-2-ethyl-3-phenyl-4-quinolinyl)oxyphenyl]-2-propeno-N-piperidineamide [Example 5] | 7.55 | 7.64 | – | – | – |
| 4-[(7-Hydroxy-2-ethyl-3-phenyl-4-quinolinyl)oxyphenyl]-2-propenonitrile [Example 6] | 7.59 | 7.50 | – | – | – |

Now from value to molecule:

| Avg. ER α pKi [1] | Avg. ER β pKi [2] | Ki [1] | Ki [2] | Ki ([2]; read-out: Avg. ER β pKi (converted)) | Molecule |
| --- | --- | --- | --- | --- | --- |
| 5.53 | 6.17 | – | – | – | 4-[(7-Hydroxy-2-phenyl-3-phenyl-4-quinolinyl)oxyphenyl]-2-propenoic acid [Example 9] |
| – | – | 14.8 nM | 28.2 nM | – | CCc1nc2cc(O)ccc2c(Oc2ccc(/C=C/C(N)=O)cc2)c1-c1ccccc1 [Example 2, 4-[(7-Hydroxy-2-ethyl-3-phenyl-4-quinolinyl)oxyphenyl]-2-propenoamide] |
| – | – | 1550 nM | – | – | CCc1nc2cc(O)ccc2c(Oc2cccc(/C=C/C(=O)O)c2)c1-c1ccccc1 [Example 10, 3-[(7-Hydroxy-2-ethyl-3-phenyl-4-quinolinyl)oxyphenyl]-2-propenoic acid] |
| – | – | 3160 nM | – | 1820 nM | CCc1nc2cc(O)ccc2c(Sc2ccc(/C=C/C(N)=O)cc2)c1-c1ccccc1 [Example 11, 4-[(7-Hydroxy-2-ethyl-3-phenyl-4-quinolinyl)thiophenyl]-2-propenoamide] |
